Measurements reported in the supplement of paper PMC10307832.

Columns and labels:
Experiment in all cases: relative viability (nuclei count vs DMSO), 5 days (fraction); higher = more cells survive
XMD13-2 + Palbociclib = compound: C1CC1C(=O)NC2=NNC3=C2C=CC(=C3)C4=CC(=CC=C4)C(=O)NC5CC5 [XMD13-2] + CC(=O)c1c(C)c2cnc(Nc3ccc(N4CCNCC4)cn3)nc2n(C2CCCC2)c1=O [Palbociclib] (partner 0.5 µM)
How it was run: (§1)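 Lung cancer cell lines, seeded in 1536-well plates, were treated the following day by pin tool with a single drug or with five library-drug doses (not always all listed) in √10 steps on top of a fixed anchor-drug dose. Cells were fixed and nuclei stained in one step after 5 days, and nuclei were counted. Relative viability is the nuclei count for treated wells divided by that for vehicle wells, reported as medians of duplicate plates.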

Dasatinib + Luminespib = compound: Cc1nc(Nc2ncc(C(=O)Nc3c(C)cccc3Cl)s2)cc(N2CCN(CCO)CC2)n1 [Dasatinib] + CCNC(=O)c1noc(-c2cc(C(C)C)c(O)cc2O)c1-c1ccc(CN2CCOCC2)cc1 [Luminespib] (partner 0.01 µM)
How it was run: as §1

ALW-II-49-7 + Phenformin = compound: Cc1ccc(C(=O)Nc2cccc(C(F)(F)F)c2)cc1Nc1cncc(C(N)=O)c1 [ALW-II-49-7] + N=C(N)NC(=N)NCCc1ccccc1 [Phenformin] (partner 250 µM)
How it was run: as §1

Dasatinib + Pemetrexed = compound: Cc1nc(Nc2ncc(C(=O)Nc3c(C)cccc3Cl)s2)cc(N2CCN(CCO)CC2)n1 [Dasatinib] + Nc1nc2[nH]cc(CCc3ccc(C(=O)N[C@@H](CCC(=O)O)C(=O)O)cc3)c2c(=O)[nH]1 [Pemetrexed] (partner 0.2 µM)
How it was run: as §1

Cell Line | relative viability (XMD13-2 + Palbociclib; first compound 0.05 µM) | relative viability (XMD13-2 + Palbociclib; first compound 0.1581 µM) | relative viability (XMD13-2 + Palbociclib; first compound 0.5 µM) | relative viability (XMD13-2 + Palbociclib; first compound 1.581 µM) | relative viability (XMD13-2 + Palbociclib; first compound 5 µM) | relative viability (Dasatinib + Luminespib; first compound 0.005 µM) | relative viability (Dasatinib + Luminespib; first compound 0.01581 µM) | relative viability (Dasatinib + Luminespib; first compound 0.05 µM) | relative viability (Dasatinib + Luminespib; first compound 0.1581 µM) | relative viability (Dasatinib + Luminespib; first compound 0.5 µM) | relative viability (ALW-II-49-7 + Phenformin; first compound 0.08 µM) | relative viability (ALW-II-49-7 + Phenformin; first compound 0.253 µM) | relative viability (ALW-II-49-7 + Phenformin; first compound 0.8 µM) | relative viability (ALW-II-49-7 + Phenformin; first compound 2.53 µM) | relative viability (ALW-II-49-7 + Phenformin; first compound 8 µM) | relative viability (Dasatinib + Pemetrexed; first compound 0.005 µM) | relative viability (Dasatinib + Pemetrexed; first compound 0.01581 µM) | relative viability (Dasatinib + Pemetrexed; first compound 0.05 µM) | relative viability (Dasatinib + Pemetrexed; first compound 0.1581 µM) | relative viability (Dasatinib + Pemetrexed; first compound 0.5 µM)
NCI-H727 | 0.677 | 0.691 | 0.758 | 0.601 | 0.627 | 0.255 | 0.425 | 0.334 | 0.237 | 0.244 | 0.52 | 0.593 | 0.537 | 0.475 | 0.51 |  |  |  |  | 
NCI-H358 | 0.139 | 0.121 | 0.133 | 0.117 | 0.129 | 0.215 | 0.169 | 0.253 | 0.262 | 0.136 | 0.324 | 0.297 | 0.356 | 0.407 | 0.312 | 0.16 | 0.176 | 0.143 | 0.151 | 0.129
NCI-H1437 | 0.297 | 0.299 | 0.335 | 0.327 | 0.255 | 1.11 | 1.12 | 1.16 | 1.08 | 0.665 | 0.266 | 0.297 | 0.301 | 0.297 | 0.263 | 0.351 | 0.336 | 0.287 | 0.256 | 0.203
NCI-H441 | 0.239 | 0.224 | 0.219 | 0.225 | 0.28 | 0.372 | 0.307 | 0.225 | 0.196 | 0.193 | 0.979 | 0.682 | 0.817 | 0.928 | 0.67 | 0.305 | 0.259 | 0.286 | 0.225 | 0.27
EMC-BAC-2 | 0.558 | 0.519 | 0.536 | 0.497 | 0.47 | 0.978 | 0.93 | 0.942 | 0.558 | 0.44 | 0.426 | 0.513 | 0.505 | 0.454 | 0.338 | 0.455 | 0.42 | 0.405 | 0.345 | 0.273
NCI-H647 | 0.491 | 0.384 | 0.408 | 0.5 | 0.225 | 0.141 | 0.0794 | 0.137 | 0.117 | 0.0952 | 0.312 | 0.325 | 0.551 | 0.539 | 0.326 | 0.156 | 0.137 | 0.117 | 0.0903 | 0.0883
CAL-12T | 0.567 | 0.418 | 0.478 | 0.504 | 0.371 | 0.794 | 0.374 | 0.334 | 0.129 | 0.072 | 0.543 | 0.498 | 0.603 | 0.627 | 0.538 | 1.23 | 1.2 | 1.27 | 0.929 | 0.479
NCI-H1792 | 0.773 | 0.691 | 0.686 | 0.765 | 0.687 | 0.467 | 0.306 | 0.244 | 0.249 | 0.2 |  |  | 0.228 | 0.147 | 0.258 | 0.709 | 0.672 | 0.605 | 0.267 | 0.067
H3255 | 0.316 | 0.291 | 0.309 | 0.334 | 0.306 | 0.919 | 0.901 | 0.793 | 0.919 | 0.371 | 0.442 | 0.394 | 0.373 | 0.331 | 0.329 | 0.578 | 0.535 | 0.52 | 0.49 | 0.375
HCC-78 | 0.45 | 0.459 | 0.448 | 0.438 | 0.483 |  |  |  |  |  | 0.718 | 0.745 |  | 0.677 | 0.633 | 0.913 | 0.894 | 0.936 | 0.899 | 0.76
NCI-H2405 | 0.545 | 0.529 | 0.474 |  | 0.518 | 0.501 | 0.309 | 0.309 | 0.247 | 0.142 | 0.389 | 0.411 | 0.343 | 0.351 | 0.358 | 0.852 | 0.65 | 0.422 | 0.229 | 0.22
A549 |  |  |  |  |  |  |  |  |  |  | 0.19 | 0.125 | 0.117 | 0.0978 | 0.201 |  |  |  |  | 
NCI-H3122 | 0.191 | 0.202 | 0.142 | 0.177 | 0.181 | 0.0996 | 0.0732 | 0.124 | 0.0691 | 0.0615 | 0.394 | 0.366 | 0.381 |  | 0.302 | 0.208 | 0.205 | 0.194 | 0.198 | 0.186
NCI-H1563 |  |  |  |  |  | 0.546 | 0.466 | 0.495 | 0.423 | 0.405 | 0.65 | 0.71 | 0.67 | 0.683 | 0.606 | 0.684 | 0.625 | 0.487 | 0.458 | 0.4
HCC-44 | 0.978 | 0.912 | 0.959 | 0.944 | 0.96 | 1.15 | 1.01 | 0.733 | 0.604 | 0.453 | 0.261 | 0.203 | 0.231 | 0.277 | 0.211 | 0.627 | 0.579 | 0.692 | 0.709 | 0.633
PC-3 [JPC-3] | 0.558 | 0.508 | 0.571 |  | 0.532 | 0.741 | 0.646 | 0.76 | 0.576 | 0.389 | 0.486 | 0.461 | 0.456 | 0.448 | 0.452 | 1.22 | 1.1 | 1.08 | 0.717 | 0.474
NCI-H1993 | 0.641 | 0.484 | 0.722 | 0.606 | 0.547 | 0.883 | 0.598 | 0.971 | 0.432 | 0.543 | 0.535 | 0.546 | 0.542 | 0.544 | 0.502 | 0.591 | 0.498 | 0.616 | 0.395 | 0.385
